Assay [1] is described as follows: Maximal rate of vascular endothelium-dependent relaxation at the concentration of 10E-5 M/L; - = no activity. The settings on record: Oryctolagus cuniculus.
For assay [2], the target named is Muscarinic acetylcholine receptor M3 (Cavia porcellus) (UniProt Q8VH26). As to conditions: Ileum.
Assay [3] is described as follows: Maximal rate of vascular endothelium-dependent relaxation at the concentration of 10E-5 M/L; […]. As to conditions: Oryctolagus cuniculus.
Assay [4] can be described thus: Maximal rate of vascular endothelium-dependent relaxation at the concentration of 10E-5 M/L; 0-10%. The settings on record: Oryctolagus cuniculus.

The source made the active and inactive calls.

Chain of Muscarinic acetylcholine receptor M3 (Cavia porcellus) (Q8VH26 1-587): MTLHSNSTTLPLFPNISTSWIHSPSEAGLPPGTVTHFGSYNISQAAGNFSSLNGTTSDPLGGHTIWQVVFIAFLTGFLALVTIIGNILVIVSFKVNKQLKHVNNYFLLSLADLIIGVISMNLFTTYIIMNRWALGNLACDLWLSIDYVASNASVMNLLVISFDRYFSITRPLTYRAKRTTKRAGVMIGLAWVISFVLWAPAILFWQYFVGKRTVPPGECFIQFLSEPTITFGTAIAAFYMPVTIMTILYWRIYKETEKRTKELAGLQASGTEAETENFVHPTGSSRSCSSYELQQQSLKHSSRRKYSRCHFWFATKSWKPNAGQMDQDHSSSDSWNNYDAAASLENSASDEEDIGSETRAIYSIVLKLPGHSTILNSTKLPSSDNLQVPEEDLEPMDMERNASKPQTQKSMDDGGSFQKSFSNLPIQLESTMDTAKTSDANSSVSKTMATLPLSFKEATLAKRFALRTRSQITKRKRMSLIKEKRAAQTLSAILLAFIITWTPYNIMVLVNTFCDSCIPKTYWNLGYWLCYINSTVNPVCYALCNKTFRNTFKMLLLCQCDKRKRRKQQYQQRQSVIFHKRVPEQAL

Take `N#CCCN1CCCCC1`: the Relaxation result in assay [1] is “inactive”. In assay [2], the Contraction result is “inactive”.

With `CN1CCN(Cc2nn[nH]n2)CC1`, the Contraction entry in assay [2] was “inactive”. Besides, in assay [3], the Relaxation turned out to be 30%.

Consider `CN1CCN(C(C#N)c2c(F)cccc2Cl)CC1` (configuration not stated), for which the Contraction result in assay [2] was “inactive”. In assay [3], this compound yielded a Relaxation of 30%.

Consider `O=C1CN2CCC1CC2`, for which the Relaxation entry in assay [1] was “inactive”. Moreover, the Contraction entry in assay [2] is “inactive”.

Turning to `COC(=O)[C@@H]1C[C@@H](O)CN1`, the Contraction result in assay [2] was “inactive”. The compound also had a Relaxation in assay [3] of 30%.

For the compound `CNC(=O)CCN1CCOCC1`, in assay [1], the Relaxation result is “inactive”. For the same compound, the Contraction entry in assay [2] was “inactive”.

For `CCOP(=O)(OCC)C(c1ccc(O)c(OC)c1[N+](=O)[O-])N1CCOCC1` (configuration not stated), in assay [2], the Contraction result is “inactive”. This compound showed a Relaxation in assay [4] of 10%.

Consider `C=CCN1CCN(C)CC1`, for which the Relaxation in assay [3] was determined as 30%.

`N#CC(NCc1ccccc1)c1ccc2c(c1)OCO2` (configuration not stated): the Contraction entry in assay [2] is “inactive”. For the same compound, the Relaxation in assay [4] came out at 10%.

Take `Cc1ccccc1C(C#N)N1CCOCC1` (configuration not stated): the Contraction entry in assay [2] was “inactive”. In assay [3], this compound had a Relaxation of 30%.

With `N#CC(NCc1ccccc1)c1ccco1` (configuration not stated), the Contraction entry in assay [2] is “inactive”. This compound also had a Relaxation in assay [4] of 10%.

Regarding `CCOC(=O)CN1CCOCC1`, in assay [2], the Contraction entry is “inactive”. Besides, the Relaxation in assay [4] is 10%.

With `N#CC(c1c(F)cccc1Cl)N1CCOCC1` (configuration not stated), the Contraction result in assay [2] is “inactive”. Also, in assay [4], the Relaxation was 10%.

Regarding `Cc1cccc(C(C#N)N2CCN(C)CC2)c1` (configuration not stated), the Contraction entry in assay [2] was “inactive”. Also, the Relaxation in assay [4] was 10%.

In the case of `CCOP(=O)(OCC)C(c1ccc(O)c(OC)c1)N1CCOCC1` (configuration not stated), the Contraction entry in assay [2] was “inactive”. The same compound gave a Relaxation in assay [3] of 30%.

For the compound `CN1CCN(C(C#N)c2ccc(Cl)c(F)c2)CC1` (configuration not stated), the Relaxation entry in assay [1] was “inactive”. For the same compound, the Contraction result in assay [2] was “inactive”.

Consider `N#CC(c1ccc2c(c1)OCO2)N1CCOCC1` (configuration not stated), for which the Contraction entry in assay [2] was “inactive”. Also, the Relaxation in assay [3] stood at 30%.

As for `CCOP(=O)(OCC)C(c1ccc(O)c(OC)c1)N1CCN(C)CC1` (configuration not stated), the Contraction entry in assay [2] is “inactive”. Further, the Relaxation in assay [3] came to 30%.

On to `CNC(=O)CCN1CCCCC1`, for which the Relaxation entry in assay [1] was “inactive”. The Contraction entry in assay [2] was “inactive”.

On to `CCOP(=O)(OCC)C(c1cc(Br)cc(Br)c1O)N1CCN(c2ccccn2)CC1` (configuration not stated), for which the Contraction result in assay [2] was “inactive”. Besides, the Relaxation in assay [3] worked out at 30%.

For `N#CC(c1ccc(Cl)c(F)c1)N1CCOCC1` (configuration not stated), in assay [1], the Relaxation entry was “inactive”. Also, the Contraction result in assay [2] was “inactive”.

In the case of `CN1CCN(CCC#N)CC1`, in assay [1], the Relaxation result is “inactive”. In assay [2], the Contraction entry is “inactive”.

Turning to `O=C(CCN1CCOCC1)c1ccc([N+](=O)[O-])cc1`, the Contraction entry in assay [2] was “inactive”. Moreover, in assay [3], the Relaxation worked out at 30%.

Regarding `CCOP(=O)(OCC)C(c1cc(OC)c(O)c(OC)c1)N1CCN(C)CC1` (configuration not stated), in assay [2], the Contraction entry was “inactive”. The compound also came in with a Relaxation in assay [3] of 30%.

`CCOP(=O)(OCC)C(c1ccc(O)c(OC)c1[N+](=O)[O-])N1CCN(C)CC1` (configuration not stated): the Contraction result in assay [2] is “inactive”. In assay [4], this compound yielded a Relaxation of 10%.

Turning to `CN1CCN(CC(=O)Nc2c(Cl)cccc2Cl)CC1`, the Contraction result in assay [2] is “inactive”. Further, in assay [4], the Relaxation is 10%.

Turning to `CN1CCN(C(C#N)c2cccs2)CC1` (configuration not stated), the Contraction result in assay [2] is “inactive”. The Relaxation in assay [3] is 30%.

Regarding `Cc1ccccc1C(C#N)N1CCN(C)CC1` (configuration not stated), the Contraction result in assay [2] was “inactive”. The compound further came in with a Relaxation in assay [4] of 10%.

Take `Cc1cccc(C(C#N)N2CCOCC2)c1` (configuration not stated): the Contraction result in assay [2] was “inactive”. This compound also registered a Relaxation in assay [3] of 30%.

As for `CN1CCN(C(C#N)c2cc3c(cc2Cl)OCO3)CC1` (configuration not stated), in assay [2], the Contraction entry is “inactive”. Besides, the Relaxation in assay [4] came out at 10%.

In the case of `CCOP(=O)(OCC)C(c1ccc(O)cc1)N1CCN(C)CC1` (configuration not stated), in assay [2], the Contraction entry was “inactive”. For the same compound, the Relaxation in assay [3] was determined as 30%.

In the case of `CN1C2CC=C(C#N)C1CC2` (configuration not stated), the Contraction result in assay [2] is “inactive”. For the same compound, the Relaxation in assay [4] was determined as 10%.

As to `Cc1ccc(C(C#N)N2CCN(C)CC2)cc1` (configuration not stated), the Contraction entry in assay [2] is “inactive”. Also, in assay [3], the Relaxation came out at 30%.

Turning to `COC(=O)C1CN(Cc2ccccc2)CCN1Cc1ccccc1` (configuration not stated), the Contraction result in assay [2] was “inactive”. For the same compound, in assay [3], the Relaxation amounted to 30%.

Consider `C#CCN1CCOCC1`, for which the Relaxation result in assay [1] is “inactive”. In addition, the Contraction result in assay [2] was “inactive”.

On to `N#CC1CC2C(=O)C=CC1N2Cc1ccccc1` (configuration not stated), for which, in assay [1], the Relaxation result is “inactive”. In assay [2], the Contraction result is “inactive”.

Regarding `CN1C2CC=C(C(N)=O)C1CC2` (configuration not stated), the Contraction entry in assay [2] was “inactive”. In assay [3], this compound returned a Relaxation of 30%.

Regarding `N#CC(c1cccs1)N1CCOCC1` (configuration not stated), the Contraction entry in assay [2] is “inactive”. The same compound yielded a Relaxation in assay [4] of 10%.

For `CCOP(=O)(OCC)C(c1ccc(O)cc1)N1CCOCC1` (configuration not stated), the Contraction entry in assay [2] is “inactive”. The same compound had a Relaxation in assay [4] of 10%.

Take `COC(=O)C1CC2C(=O)C=CC1N2Cc1ccccc1` (configuration not stated): in assay [2], the Contraction result is “inactive”. In assay [4], this compound returned a Relaxation of 10%.

Take `COC(=O)CCN1CCN(C)CC1`: the Relaxation entry in assay [1] is “inactive”. Further, the Contraction result in assay [2] was “inactive”.

`N#CC1CN(Cc2ccccc2)CCN1Cc1ccccc1` (configuration not stated): in assay [2], the Contraction result was “inactive”. The Relaxation in assay [3] is 30%.

For `N#CC(c1ccc(F)cc1)N1CCOCC1` (configuration not stated), the Contraction result in assay [2] is “inactive”. Moreover, the Relaxation in assay [3] came out at 30%.

Regarding `COC(=O)CCN1CCCCC1`, the Contraction entry in assay [2] is “inactive”. The compound also gave a Relaxation in assay [4] of 10%.

Regarding `CCOC(=O)CN1CCN(C)CC1`, the Contraction result in assay [2] was “inactive”. The compound further showed a Relaxation in assay [3] of 30%.

As for `N#CC(c1ccco1)N1CCOCC1` (configuration not stated), in assay [2], the Contraction result was “inactive”. The Relaxation in assay [4] was determined as 10%.

On to `CN1CCN(C(C#N)c2ccccc2Cl)CC1` (configuration not stated), for which, in assay [2], the Contraction result was “inactive”. The same compound registered a Relaxation in assay [4] of 10%.

`CCOP(=O)(OCC)C(c1cc([N+](=O)[O-])ccc1O)N1CCN(C)CC1` (configuration not stated): the Contraction result in assay [2] is “inactive”. This compound came in with a Relaxation in assay [3] of 30%.

For `Cc1ccc(C(C#N)N2CCOCC2)cc1` (configuration not stated), the Contraction entry in assay [2] was “inactive”. In addition, the Relaxation in assay [3] is 30%.

Regarding `CN1CCN(C(C#N)c2ccco2)CC1` (configuration not stated), the Contraction entry in assay [2] is “inactive”. In addition, the Relaxation in assay [4] worked out at 10%.

For `N#CC(c1ccccc1F)N1CCOCC1` (configuration not stated), in assay [2], the Contraction entry is “inactive”. The Relaxation in assay [3] is 30%.

`C#CCN1CCN(C)CC1`: the Contraction entry in assay [2] was “inactive”. In assay [3], this compound showed a Relaxation of 30%.

In the case of `O=C(CN1CCOCC1)Nc1c(Cl)cccc1Cl`, in assay [2], the Contraction entry was “inactive”. In assay [3], this compound showed a Relaxation of 30%.

Take `CN1CCN(C(C#N)c2ccc3c(c2)OCO3)CC1` (configuration not stated): in assay [2], the Contraction entry is “inactive”. In addition, the Relaxation in assay [3] was 30%.

Consider `CCOP(=O)(OCC)C(c1ccc(O)cc1)N1CCN(c2ccccn2)CC1` (configuration not stated), for which, in assay [2], the Contraction result is “inactive”. The compound further returned a Relaxation in assay [4] of 10%.

For `CCOP(=O)(OCC)C(c1cc([N+](=O)[O-])ccc1O)N1CCOCC1` (configuration not stated), the Contraction result in assay [2] was “inactive”. This compound came in with a Relaxation in assay [3] of 30%.

With `N#CCN1CCCCC1`, the Contraction entry in assay [2] was “inactive”.

The values above are taken from ChEMBL document CHEMBL1146775 (2004).
